{"source": "patent US8889707B2", "about": "“Treatment of addiction” (priority 2012, dated 2014)", "system": "Male Sprague-Dawley rats trained for cocaine-CPP", "assay": "Cocaine-CPP memory retrieval test, PJ-34 infused before testing", "assay_type": "in vivo, rat", "conditions": "intra-CeA infusion, p<0.01", "data": [{"smiles": "CN(C)CC(=O)Nc1ccc2[nH]c(=O)c3ccccc3c2c1.Cl", "note": "[PJ-34, N-(6-Oxo-5,6-dihydrophenanthridin-2-yl)-(N,N-dimethylamino)acetamide hydrochloride]", "values": [{"measurement": "Preference for the cocaine compartment", "setting": "50 microM, 1.2 microl, tested 30 min after infusion, vs vehicle, FIG. 4A", "result": "abolished"}, {"measurement": "Abolished preference for the cocaine compartment in post-conditioning test", "setting": "test 24 hours later", "result": "persisted"}, {"measurement": "Abolished preference for the cocaine compartment in post-conditioning test", "setting": "test 7 days later", "result": "persisted"}, {"measurement": "Abolished preference for the cocaine compartment in post-conditioning test", "setting": "test 14 days later", "result": "persisted"}]}]}
